Tested on: TβR-I and TβR-II
Assay: 125I-TGF-β1 affinity labeling, Mv1Lu cells
Type: cell-based, mink
Description: (A) Mv1Lu cells were treated with 50 μg/ml cholesterol at 37° C. After several time periods, as indicated, ^125I-TGF-β1-affinity labeling was performed at 0° C. ^125I-TGF-β1 affinity-labeled TGF-β receptors were analyzed by 7.5% SDS-PAGE and autoradiography (a) and quantified with a PhosphoImager. The bracket indicates the locations of ^125I-TGF-β1 affinity-labeled TβR-I and TβR-II. The ratio of ^125I-TGF-β1 binding to TβR-II and TβR-I is plotted against incubation time (b).
(B, C, D, E) Cells were treated with increasing concentrations of cholesterol in the presence (C) and absence (B, D, E) of 0.2% β-CD, as indicated. After 1 hr at 37° C., ^125I-TGF-β1 affinity labeling of TβR-I and TβR-II in cells was performed at 0° C. ^125I-TGF-β1 affinity-labeled TβR-I and TβR-II were analyzed by 7.5% SDS-PAGE and autoradiography or quantified with a PhosphoImager. A representative of a total of three analyses is shown (top). The bracket indicates the locations of ^125I-TGF-β affinity-labeled TβR-I and TβR-II. The relative intensities of ^125I-TGF-β1 affinity-labeled TβR-I and TβR-II in cells treated without cholesterol were taken as 100%. The quantitative data from three analyses is shown (bottom).
The bracket indicates the locations of ^125I-TGF-β1 affinity-labeled TβR-I and TβR-II. The relative intensities of ^125I-TGF-β1-TβR-I and ^125I-TGF-β1-TβR-II complexes, which were quantified with a PhosphoImager, are plotted against TGF-β1 concentrations (bottom).
(A, B, C, D, E, F) Cells were treated with LDL (50 μg protein/ml), VLDL (5 μg protein/ml), HDL (50 μg protein/ml), lipoprotein (a) (10 μg/ml), fluvastatin (F; 1 μM), lovastatin (L; 1 μM), nystatin (Nys; 25 μg/ml), β-CD (β-CD; 8 mM), cholest-4-en-3-one (3-one; 50 μg/ml) or cholesterol (Chol; 50 μg/ml) alone or combination of two. After 1 hr at 37° C. or 16 hr at 37° C. (for fluvastatin and lovastatin), ^125I-TGF-β1 affinity labeling of cell-surface TGF-β receptors was performed at 0° C. ^125I-TGF-β1 affinity-labeled TβR-I and TβR-II were analyzed by 7.5% SDS-PAGE and autoradiography. The relative intensities of TβR-I and TβR-II were quantified with a PhosphoImager. The ratio of ^125I-TGF-β1 binding to TβR-II and TβR-I were estimated. The numbers above the lane sequence denote the ratio of TβR-II/TβR-I.
(G) Mv1Lu cells were treated with 50 μg/ml of cholesterol and cholesterol analogs/derivatives including 25-hydroxycholesterol, 7-dehydrocholesterol (7-DHC), 7-ketocholesterol, 7β, 8β-epoxycholesterol, 7β-hydroxycholesterol, and oxidized 7-dehydrocholesterol (oxy-7DHC). After 1 hr at 37° C., ^125I-TGF-β1 affinity labeling of TGF-β receptors was performed. ^125I-TGF-β1 affinity-labeled TβR-I and TβR-II were analyzed by 7.5% SDS-PAGE and autoradiography. The bracket indicates the locations of ^125I-TGF-β1-affinity-labeled TβR-I and TβR-II. The relative intensities of ^125I-TGF-β1 affinity-labeled TβR-I and TβR-II were determined by a PhosphoImager. The ratios of ^125I-TGF-β1 binding to TβR-II and TβR-I were estimated. The numbers above the lane sequence denote the ratio of TβR-II/TβR-I.
After cross-linking, cell lysates were analyzed by 7.5% SDS-PAGE and autoradiography or quantified by a PhosphoImager. For all experiments, cholesterol or cholesterol derivatives were prepared as the stock solution with a concentration of 25 mg/ml in ethanol. The final concentration of ethanol in the medium was 0.2% (by vol.).

[1] = 50 μg/ml, 60-min or 120-min incubation (FIG. 3A)
[2] = 125 μg/ml in the presence of 0.2% β-CD

CC(C)CCC[C@@H](C)[C@H]1CC[C@H]2[C@@H]3CC=C4C[C@@H](O)CC[C@]4(C)[C@H]3CC[C@]12C [cholesterol]
effect on 125I-TGF-β1 binding to TβR-II [1]: did not affect | increase of 125I-TGF-β1 binding to TβR-I [1]: ~1.5 fold | ratio of TβR-II/TβR-I (50 μg/ml, 60 min or 120 min, 0.37 without cholesterol): 0.18 | effect on the affinities of TGF-β1 binding to both TβR-I and TβR-II (50 μg/ml, 1 hr): does not alter | relative potency in increasing binding to TβR-I and decreasing the ratio (50 μg/ml, 1 hr (FIG. 4G)): the most potent of these compounds | increase of 125I-TGF-β1 binding to TβR-I (50 μg/ml, 1 hr, 125 pM 125I-TGF-β1 (FIG. 3F)): ~2 fold | 125I-TGF-β1 binding to TβR-II, relative intensity (50 μg/ml, 1 hr, 125 pM 125I-TGF-β1, ~180 untreated): ~120 ×10^3 A.U. | 125I-TGF-β1 binding to TβR-I, relative intensity (50 μg/ml, 1 hr, 125 pM 125I-TGF-β1, ~350 untreated): ~700 ×10^3 A.U. | ratio of TGF-β1 binding to TβR-II and TβR-I (50 μg/ml, 1 hr, 0.62 untreated (FIG. 4G)): 0.29 | increase of 125I-TGF-β1 binding to TβR-I (50 μg/ml, 1 hr, Mv1Lu cells): ~2.5 fold | ratio of TβR-II/TβR-I (50 μg/ml, 1 hr, Mv1Lu cells, 0.42 untreated): 0.20 | effect on 125I-TGF-β1 binding to TβR-II [2]: little effect | increase of 125I-TGF-β1 binding to TβR-I [2]: ~3 fold | effect of exogenous cholesterol on the statin effect on the ratio (CHO-K1, Mv1Lu and BAEC cells (FIGS. 4D, E and F)): abolished | effect on binding of 125I-TGF-β1 to TβR-II (increasing concentrations, 1 hr, Mv1Lu cells): did not significant alter

C[C@@H]1[C@H](O)[C@@H](C)/C=C/C=C/CC/C=C/C=C/C=C/C=C/C(O[C@H]2O[C@H](C)[C@@H](O)[C@H](N)[C@@H]2O)CC2O[C@](O)(CC(O)C(O)CCC(O)CC(O)CC(O)CC(=O)O[C@H]1C)CC(O)C2C(=O)O (some centres unmarked) [nystatin, reference compound]
effect on the LDL- or cholesterol-induced increase of 125I-TGF-β1 binding to TβR-I (co-treatment, β-CD 8 mM, nystatin 25 μg/ml, cholest-4-en-3-one 50 μg/ml (FIG. 4B, C)): abolished

CC[C@H](C)C(=O)O[C@H]1C[C@@H](C)C=C2C=C[C@H](C)[C@H](CC[C@@H]3C[C@@H](O)CC(=O)O3)[C@H]21 [lovastatin, reference compound]
ratio of TβR-II/TβR-I (1 μM, 37° C. 16 hr, Mv1Lu cells, 0.88 untreated): 1.18
